How the values were obtained:
PARG [1] = target: T1, PARG (Homo sapiens (Human), UniProt Q86W56); test: PARG target engagement cellular assay (PAR polymer immunostaining after cisplatin); type: cell-based; settings: HCC1806 cells treated with cisplatin, then compound titration for 1 h; PAR polymer antibody readout
Protocol: Example a. Inhibition of PARG Target Engagement Cellular Assay
The ability of the compounds of the Examples to inhibit PARG was determined as described below. After treating HCC1806 cells with cisplatin, followed by PARG inhibitor compound titration for 1 h, the cells were fixed in formaldehyde. The cells were permeabilized, blocked, and incubated with antibody against poly (ADP) ribose (PAR) polymer. The cells were then washed and incubated with IR 800 conjugated secondary antibody together with TO-PRO3 iodide nuclear stain. After washing, images of the cells were captured and analyzed on Odyssey CLx instrument and analyzed using LI-COR image studio software.

PARG [2] = target: T1, PARG; test: PARG TFMU assay (4-(trifluoromethyl)umbelliferone substrate); type: biochemical; settings: PARG 250 pM or 2 nM, 10-point dose response
Protocol: Example C. Inhibition of PARG TEMU Assay
The ability of the compounds of the Examples to inhibit PARG activity in 4. (trifluoromethyl)umbelliferone (TFMU) assay was determined as described below. PARG inhibitors were added into 384 well plate for a 10-point dose response curve at 1:3 dilutions. TFMU PARG substrate and PARG (250 pM or 2 nM) were then added to the plate to initiate enzymatic reaction. After incubation with the reagent, […] was read. IC50 values were calculated using set control points for 100% inhibition as no enzyme and 0% inhibition 250 pM or 2 nM of PARG enzyme.

T1 sequence (Q86W56 whole entry): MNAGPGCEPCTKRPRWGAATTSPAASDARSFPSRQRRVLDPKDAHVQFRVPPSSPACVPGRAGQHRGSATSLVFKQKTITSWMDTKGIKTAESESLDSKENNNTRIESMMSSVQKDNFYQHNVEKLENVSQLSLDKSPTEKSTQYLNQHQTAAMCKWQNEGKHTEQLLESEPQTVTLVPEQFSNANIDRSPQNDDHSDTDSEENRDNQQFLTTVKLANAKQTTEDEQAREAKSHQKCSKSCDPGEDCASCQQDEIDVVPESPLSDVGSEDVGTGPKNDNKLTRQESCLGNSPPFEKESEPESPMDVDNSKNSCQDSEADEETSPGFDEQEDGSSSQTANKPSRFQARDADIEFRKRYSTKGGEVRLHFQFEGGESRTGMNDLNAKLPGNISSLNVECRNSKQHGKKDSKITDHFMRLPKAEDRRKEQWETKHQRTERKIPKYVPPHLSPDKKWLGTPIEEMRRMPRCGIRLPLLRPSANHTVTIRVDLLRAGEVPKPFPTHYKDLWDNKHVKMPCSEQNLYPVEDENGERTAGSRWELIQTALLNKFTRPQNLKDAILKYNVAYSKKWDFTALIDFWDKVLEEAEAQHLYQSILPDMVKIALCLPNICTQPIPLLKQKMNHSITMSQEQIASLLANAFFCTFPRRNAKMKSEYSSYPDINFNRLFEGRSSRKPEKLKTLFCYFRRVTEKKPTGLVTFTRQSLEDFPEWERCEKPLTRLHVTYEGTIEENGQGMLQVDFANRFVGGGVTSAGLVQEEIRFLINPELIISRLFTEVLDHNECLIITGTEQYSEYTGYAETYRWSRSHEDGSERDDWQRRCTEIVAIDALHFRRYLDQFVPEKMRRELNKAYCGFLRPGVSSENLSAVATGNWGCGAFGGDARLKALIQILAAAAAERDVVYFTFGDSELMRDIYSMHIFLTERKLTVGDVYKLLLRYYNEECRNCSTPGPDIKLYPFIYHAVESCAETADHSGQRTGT

SMILES	IC50 (PARG [1]) [µM]	IC50 (PARG [2]) [nM]
CCn1c(=O)c2cc(S(=O)(=O)N[C@@]3(C)C[C@H]3CC#N)ccc2n(CC)c1=O (racemic) [Example 16, N-((1SR,2SR)-2-(cyanomethyl)-1-methylcyclopropyl)-1,3-diethyl-2,4-dioxo-1,2,3,4-tetrahydroquinazoline-6-sulfonamide]	> 100	≥ 5000
CC[C@H]1C[C@@]1(C)NS(=O)(=O)c1ccc2c(c1)c(=O)n(CC)c(=O)n2CC (single isomer, unassigned) [Example 13D]	> 100	≥ 5000
CCn1c(=O)c2cc(S(=O)(=O)N[C@@]3(C)C[C@H]3CCO)ccc2n(CC)c1=O (single isomer, unassigned) [Example 15A]	> 100	500 to 5000
CCn1c(=O)c2cc(S(=O)(=O)N[C@@]3(C)CO[C@H]3C)ccc2n(CC)c1=O (single isomer, unassigned) [Example 17A]	10 to 100	50 to 500
CCOC(=O)/C=C/Cn1c(=O)[nH]c2ccc(S(=O)(=O)NC34CC(C3)C4)cc2c1=O [Example 1, ethyl (2E)-4-[6-({bicyclo[1.1.1]pentan-1-yl}sulfamoyl)-2,4-dioxo-1H-quinazolin-3-yl]but-2-enoate]	> 100	≥ 5000
O=C(O)/C=C/Cn1c(=O)[nH]c2ccc(S(=O)(=O)NC34CC(C3)C4)cc2c1=O [Example 2, (2E)-4-[6-({bicyclo[1.1.1]pentan-1-yl}sulfamoyl)-2,4-dioxo-1H-quinazolin-3-yl]but-2-enoic Acid]	> 100	≥ 5000
NC(=O)/C=C/Cn1c(=O)[nH]c2ccc(S(=O)(=O)NC34CC(C3)C4)cc2c1=O [Example 3, (2E)-4-[6-({bicyclo[1.1.1]pentan-1-yl}sulfamoyl)-2,4-dioxo-1H-quinazolin-3-yl]but-2-enamide]	> 100	500 to 5000
CCn1c(=O)c2cc(S(=O)(=O)NC3(C)COC3)ccc2n(CC)c1=O [Example 4, 1,3-diethyl-N-(3-methyloxetan-3-yl)-2,4-dioxoquinazoline-6-sulfonamide]	10 to 100	50 to 500
CCn1c(=O)c2cc(S(=O)(=O)NC3(C)CSC3)ccc2n(CC)c1=O [Example 5, 1,3-diethyl-N-(3-methylthietan-3-yl)-2,4-dioxoquinazoline-6-sulfonamide]	> 100	500 to 5000
CC(C)C(=O)N1CCN(c2cc(S(=O)(=O)NC3(C)COC3)cc3c2cnn3-c2nnc(C(F)F)s2)CC1 [Example 6, 1-[5-(difluoromethyl)-1,3,4-thiadiazol-2-yl]-N-(3-methyloxetan-3-yl)-4-[4-(2-methylpropanoyl)piperazin-1-yl]indazole-6-sulfonamide]	< 10	< 50
CCn1c(=O)c2cc(S(=O)(=O)NC3(C)CCC3)ccc2n(CC)c1=O [Example 7, 1,3-diethyl-N-(1-methylcyclobutyl)-2,4-dioxoquinazoline-6-sulfonamide]	> 100	≥ 5000
CCn1c(=O)c2cc(S(=O)(=O)NC3(C)CCOC3)ccc2n(CC)c1=O (stereo not drawn) [Example 8, 1,3-diethyl-N-(3-methyloxolan-3-yl)-2,4-dioxoquinazoline-6-sulfonamide]	> 100	–
COC(=O)/C=C/Cn1c(=O)[nH]c2ccc(S(=O)(=O)NC3(C)COC3)cc2c1=O [Example 9, methyl (2E)-4-{6-[(3-methyloxetan-3-yl)sulfamoyl]-2,4-dioxo-1H-quinazolin-3-yl}but-2-enoate]	10 to 100	500 to 5000
CCn1c(=O)c2cc(S(=O)(=O)NC3(C#N)COC3)ccc2n(CC)c1=O [Example 10, N-(3-cyanooxetan-3-yl)-1,3-diethyl-2,4-dioxoquinazoline-6-sulfonamide]	10 to 100	500 to 5000
C=Cc1nnc(-n2ncc3c(N4CCN(C(=O)C(C)C)CC4)cc(S(=O)(=O)NC4(CF)COC4)cc32)s1 [Example 47, N-(3-(fluoromethyl)oxetan-3-yl)-4-(4-isobutyrylpiperazin-1-yl)-1-(5-vinyl-1,3,4-thiadiazol-2-yl)-1H-indazole-6-sulfonamide]	–	< 50
CN1CCN(c2cc(S(=O)(=O)NC3(C)COC3)cc3c2cnn3-c2nnc(C(F)F)s2)CC1 [Example 48, 1-(5-(difluoromethyl)-1,3,4-thiadiazol-2-yl)-N-(3-methyloxetan-3-yl)-4-(4-methylpiperazin-1-yl)-1H-indazole-6-sulfonamide]	–	50 to 500
CCn1c(=O)c2cc(S(=O)(=O)NC3(C)CNC3)ccc2n(CC)c1=O [Example 49, 1,3-diethyl-N-(3-methylazetidin-3-yl)-2,4-dioxo-1,2,3,4-tetrahydroquinazoline-6-sulfonamide]	–	500 to 5000
N#CC1(NS(=O)(=O)c2cc(Cl)c3cnn(-c4nnc(C(F)F)s4)c3c2)COC1 [Example 63, 4-chloro-N-(3-cyanooxetan-3-yl)-1-(5-(difluoromethyl)-1,3,4-thiadiazol-2-yl)-1H-indazole-6-sulfonamide]	–	500 to 5000
CC1(NS(=O)(=O)c2cc(Cl)c3cnn(-c4nnc(C(F)F)s4)c3c2)CC1CCO (stereo not drawn) [Example 65, 4-chloro-1-(5-(difluoromethyl)-1,3,4-thiadiazol-2-yl)-N-(2-(2-hydroxyethyl)-1-methylcyclopropyl)-1H-indazole-6-sulfonamide]	–	500 to 5000
CC1OCC1(C)NS(=O)(=O)c1cc(Cl)c2cnn(-c3nnc(C(F)F)s3)c2c1 (stereo not drawn) [Example 71, 4-chloro-1-(5-(difluoromethyl)-1,3,4-thiadiazol-2-yl)-N-(2,3-dimethyloxetan-3-yl)-1H-indazole-6-sulfonamide]	–	50 to 500
Cn1ncc2ccc(S(=O)(=O)NC3(C)COC3)cc21 [Example 72, 1-methyl-N-(3-methyloxetan-3-yl)-1H-indazole-6-sulfonamide]	–	≥ 5000
COc1cc(S(=O)(=O)NC2(C)COC2)cc2c1cnn2-c1nnc(C(F)F)s1 [Example 73, 1-(5-(difluoromethyl)-1,3,4-thiadiazol-2-yl)-4-methoxy-N-(3-methyloxetan-3-yl)-1H-indazole-6-sulfonamide]	–	50 to 500
CC1(NS(=O)(=O)c2cc(N3CCN(C(=O)C4CCCC4)CC3)c3cnn(-c4nnc(C(F)F)s4)c3c2)COC1 [Example 76, 4-(4-(cyclopentanecarbonyl)piperazin-1-yl)-1-(5-(difluoromethyl)-1,3,4-thiadiazol-2-yl)-N-(3-methyloxetan-3-yl)-1H-indazole-6-sulfonamide]	–	< 50
CN(CC(F)F)C(=O)N1CCN(c2cc(S(=O)(=O)NC3(CF)COC3)cc3c2cnn3-c2nnc(C(F)F)s2)CC1 [Example 77, N-(2,2-difluoroethyl)-4-(1-(5-(difluoromethyl)-1,3,4-thiadiazol-2-yl)-6-(N-(3-(fluoromethyl)oxetan-3-yl)sulfamoyl)-1H-indazol-4-yl)-N-methylpiperazine-1-carboxamide]	–	< 50
C=Cc1nnc(-n2ncc3c(N4CCN(C(=O)C(C)C)CC4)cc(S(=O)(=O)NC4(C)COC4)cc32)s1 [Example 80, 4-(4-isobutyrylpiperazin-1-yl)-N-(3-methyloxetan-3-yl)-1-(5-vinyl-1,3,4-thiadiazol-2-yl)-1H-indazole-6-sulfonamide]	–	< 50
CC(C)C(=O)N1CCN(c2cc(S(=O)(=O)NC3(C)COC3)cc3c2cnn3-c2nnc(Br)s2)CC1 [Example 81, 1-(5-bromo-1,3,4-thiadiazol-2-yl)-4-(4-isobutyrylpiperazin-1-yl)-N-(3-methyloxetan-3-yl)-1H-indazole-6-sulfonamide]	–	< 50

From patent publication US20250346564A1 (ARase Therapeutics Inc., priority 2022, published 2025)
